Measured values from EP0063525A1, “Dibenzazepine tetracyclic derivatives, process for their preparation and pharmaceutical compositions containing them” (CENTRE NATIONAL DE LA RECHERCHE SCIENTIFIQUE (CNRS), priority 1981, dated 1982).
Like-named read-outs stand apart in the source and are kept apart here.

Key:
[1] = tested on: Souris; experiment: antireserpine activity: reserpine hypothermia; type: in vivo; conditions: réserpine 5 mg/kg i.p. 17 h before
Description: On note ensuite les températures témoins (réserpine), puis les températures 1, 2, 3 et 4 heures après l'administration des produits étudiés.
Les animaux sont répartis en lots de 4 animaux et reçoivent par voie intrapéritonéale la réserpine à une dose de 5 mg/kg. 17 heures après cette injection, on mesure la température corporelle de l'animal à l'aide d'une sonde thermocouple introduite dans le rectum; chaque lot reçoit ensuite la substance par voie intrapéritonéale. Le lot témoin reçoit la même quantité de solvant et par la même voie. La température corporelle est ensuite mesurée toutes les heures pendant 4 heures.
Les résultats sont rassemblés dans un tableau récapitulatif-où sont indiqués : • - la température moyenne pour chaque lot relevée 17 heures après l'injection de la réserpine, • - la moyenne des variations de température pour chaque lot relevées 1,2, 3 et 4 heures après l'injection de la substance étudiée, • - la somme des variations de températures pendant 4 heures, • - le pourcentage d'augmentation de la température pour chaque produit par rapport aux témoins.

[2] = acute toxicity in the mouse, intraperitoneal; type: in vivo, Souris; conditions: mouse, in vivo, ip, voie intrapéritonéale; for LD50 at 48 h: souris femelles, read-out: DL 50; for mortality at 48 h: read-out: Mortalité %
Source text: (§1) Les produits ont été administrés par voie intrapéritonéale à des souris femelles dont le poids variait de 18 à 30 g.
(§2) Les animaux injectés ont été maintenus dans une salle thermostatée, nourris et abreuvés à volonté.
(§3) La mortalité a été relevée à 1 heure, 4 heures, 24 heures et 48 heures.

[3] = tested on: souris femelles; experiment: acute toxicity in the mouse, intraperitoneal; type: in vivo; conditions: voie intrapéritonéale, dead mice of the group
Source text: as §1, §2, §3

[4] = tested on: Souris; experiment: tetrabenazine hypothermia; type: in vivo
Description: (§4) Ce test permet de révéler également une activité antidépressive avec l'avantage d'une lecture plus rapide qu'avec la réserpine.
Les produits sont injectés 30 minutes avant l'administration de tétrabénazine.
Les températures sont relevées aux temps : 0, 30 minutes, 60 minutes, 90 minutes et 120 minutes.
(§5) Les souris sont réparties par lots de 5.
Les températures sont relevées avant l'injection de tétrabénazine, 30 minutes, 60 minutes, 90 minutes et 120 minutes après.
(§6) Le lot témoin comprend 20 souris.

[5] = tested on: Souris; experiment: tetrabenazine ptosis; type: in vivo; conditions: for Ptosis 30 minutes / Ptosis 60 minutes / Ptosis 90 minutes / Ptosis 120 minutes: score 0-4 per eye
Description: as §4, §5
Le ptosis est noté avant l'injection de tétrabénazine, 30 minutes, 60 minutes, 90 minutes et 120 minutes après.
On a adopté la notation suivante : • - 0 : pour un oeil ouvert, • - 1 : pour un oeil fermé au quart, • - 2 : pour un oeil fermé à moitié, • - 3 : pour un oeil fermé aux trois-quarts, • - 4 : pour un oeil fermé complètement.
as §6

[6] = product i.p. 100 mg/kg 30 min before tétrabénazine 32 mg/kg i.v.
[7] = product i.p. 200 mg/kg 30 min before tétrabénazine 32 mg/kg i.v.
[8] = ip, 4 h, product i.p. 50 mg/kg, read-out: % d'augmentation par rapport aux témoins
[9] = ip, 2 h, hypothermie, product i.p. 50 mg/kg 30 min before tétrabénazine 32 mg/kg i.v., read-out: % de protection
[10] = product i.p. 50 mg/kg 30 min before tétrabénazine 32 mg/kg i.v.
[11] = ip, 2 h, ptosis, product i.p. 50 mg/kg 30 min before tétrabénazine 32 mg/kg i.v., read-out: % de protection

For `CN(C)CCN1c2ccccc2C2C(c3ccccc3)=NN(c3ccccc3)C2c2ccccc21` (stereo not drawn) [compound 7, (β-diméthylaminoéthyl)-8 diphényl-1,3 tétrahydro-1,3a, 8, 12b (dibenzo [b,f]pyrazolo [3,4-d]) azépine], the change in vivo at 100 mg/kg ([1]; ip, 4 h, product i.p. 100 mg/kg, read-out: % d'augmentation par rapport aux témoins) was 125%, the “variation de température T= 2h” value ([1]; product i.p. 100 mg/kg) was “+1,1” and the “variation de température T=3h” value ([1]; product i.p. 100 mg/kg) was “+0,7”. For the same compound, the “variation de température T=4h” value ([1]; product i.p. 100 mg/kg) was “+0,1”, the LD50 at 48 h [2] was over 500 mg/kg and the mortality at 48 h ([2]; 250 mg/kg) was 0%. For the same compound, the mortality at 48 h ([2]; 500 mg/kg) was 0%, the “Mortalité en 1 heure” value ([3]; 250 mg/kg) was 0 and the “Mortalité en 48 h.” value ([3]; 250 mg/kg) was 0. For the same compound, the “Mortalité en 1 heure” value ([3]; 500 mg/kg) was 0, the “Mortalité en 48 h.” value ([3]; 500 mg/kg) was 0 and the “Mortalité en 1 heure” value ([3]; 900 mg/kg) was 1. The “Mortalité en 48 h.” value ([3]; 900 mg/kg) was 1, the inhibition in vivo at 100 mg/kg ([4]; ip, 2 h, hypothermie, product i.p. 100 mg/kg 30 min before tétrabénazine 32 mg/kg i.v., read-out: % de protection) was 26% and the “Température après tétrabénazine 30 minutes” value [4, 6] was -3,2. For the same compound, the “Température après tétrabénazine 60 minutes” value [4, 6] was -1,3, the “Température après tétrabénazine 90 minutes” value [4, 6] was -1 and the “Température après tétrabénazine 120 minutes” value [4, 6] was -0,8. For the same compound, the “Température après tétrabénazine Total” value [4, 6] was -6,3, the inhibition in vivo at 100 mg/kg ([5]; ip, 2 h, ptosis, product i.p. 100 mg/kg 30 min before tétrabénazine 32 mg/kg i.v., read-out: % de protection) was 14% and the “Ptosis Total” value [5, 6] was 25,8. The “Ptosis 30 minutes” value [5, 6] was 3,8, the “Ptosis 60 minutes” value [5, 6] was 7 and the “Ptosis 90 minutes” value [5, 6] was 7. The “Ptosis 120 minutes” value [5, 6] was 8.
In the case of `CN(C)CCN1c2ccccc2-c2c(-c3ccccc3)nn(-c3ccccc3)c2-c2ccccc21` [compound 13], the change in vivo at 200 mg/kg ([1]; ip, 4 h, product i.p. 200 mg/kg, read-out: % d'augmentation par rapport aux témoins) is reported as 70%, the “variation de température T=1h” value ([1]; product i.p. 200 mg/kg) is reported as “+1,9” and the “variation de température T= 2h” value ([1]; product i.p. 200 mg/kg) is reported as “+1”. The “variation de température T=3h” value ([1]; product i.p. 200 mg/kg) was “+0,5”, the “variation de température T=4h” value ([1]; product i.p. 200 mg/kg) was 0 and the LD50 at 48 h [2] was 350 mg/kg. For the same compound, the mortality at 48 h ([2]; 50 mg/kg) was 0%, the mortality at 48 h ([2]; 100 mg/kg) was 0% and the mortality at 48 h ([2]; 250 mg/kg) was 0%. For the same compound, the mortality at 48 h ([2]; 400 mg/kg) was 60%, the mortality at 48 h ([2]; 750 mg/kg) was 100% and the “Mortalité en 1 heure” value ([3]; 50 mg/kg) was 0. The “Mortalité en 48 h.” value ([3]; 50 mg/kg) was 0, the “Mortalité en 1 heure” value ([3]; 100 mg/kg) was 0 and the “Mortalité en 48 h.” value ([3]; 100 mg/kg) was 0. For the same compound, the “Mortalité en 1 heure” value ([3]; 250 mg/kg) was 0, the “Mortalité en 48 h.” value ([3]; 250 mg/kg) was 0 and the “Mortalité en 1 heure” value ([3]; 400 mg/kg) was 3. For the same compound, the “Mortalité en 48 heures” value ([3]; 400 mg/kg) was 3, the “Mortalité en 1 heure” value ([3]; 750 mg/kg) was 2 and the “Mortalité en 48 h.” value ([3]; 750 mg/kg) was 5. The inhibition in vivo at 200 mg/kg ([4]; ip, 2 h, hypothermie, product i.p. 200 mg/kg 30 min before tétrabénazine 32 mg/kg i.v., read-out: % de protection) was 15%, the “Température après tétrabénazine 30 minutes” value [4, 7] was -3,4 and the “Température après tétrabénazine 60 minutes” value [4, 7] was -1,9. For the same compound, the “Température après tétrabénazine 90 minutes” value [4, 7] was -1,1, the “Température après tétrabénazine 120 minutes” value [4, 7] was -0,9 and the “Température après tétrabénazine Total” value [4, 7] was -7,3. The inhibition in vivo at 200 mg/kg ([5]; ip, 2 h, ptosis, product i.p. 200 mg/kg 30 min before tétrabénazine 32 mg/kg i.v., read-out: % de protection) was 14%, the “Ptosis Total” value [5, 7] was 25,9 and the “Ptosis 30 minutes” value [5, 7] was 4. For the same compound, the “Ptosis 60 minutes” value [5, 7] was 6,8, the “Ptosis 90 minutes” value [5, 7] was 7,6 and the “Ptosis 120 minutes” value [5, 7] was 7,5.
Work on `CN(C)CCCN1c2ccccc2-c2onc(-c3ccccc3)c2-c2ccccc21` [compound 18] yielded a change in vivo at 50 mg/kg [1, 8] of 25%, a change in vivo at 150 mg/kg ([1]; ip, 4 h, product i.p. 150 mg/kg, read-out: % d'augmentation par rapport aux témoins) of 175% and an LD50 at 48 h [2] of 225 mg/kg. It also gave a mortality at 48 h ([2]; 50 mg/kg) of 0%, a mortality at 48 h ([2]; 100 mg/kg) of 0% and a mortality at 48 h ([2]; 150 mg/kg) of 0%. For the same compound, the mortality at 48 h ([2]; 200 mg/kg) was 100%, the mortality at 48 h ([2]; 250 mg/kg) was 100% and the “Mortalité en 1 heure” value ([3]; 50 mg/kg) was 0. For the same compound, the “Mortalité en 48 h.” value ([3]; 50 mg/kg) was 0, the “Mortalité en 1 heure” value ([3]; 100 mg/kg) was 0 and the “Mortalité en 48 h.” value ([3]; 100 mg/kg) was 0. For the same compound, the “Mortalité en 1 heure” value ([3]; 150 mg/kg) was 0, the “Mortalité en 48 h.” value ([3]; 150 mg/kg) was 0 and the “Mortalité en 1 heure” value ([3]; 200 mg/kg) was 5. The “Mortalité en 48 h.” value ([3]; 200 mg/kg) was 5, the “Mortalité en 1 heure” value ([3]; 250 mg/kg) was 4 and the “Mortalité en 48 h.” value ([3]; 250 mg/kg) was 5. For the same compound, the inhibition in vivo at 50 mg/kg [4, 9] was 8%, the “Température après tétrabénazine 30 minutes” value [4, 10] was -3,1 and the “Température après tétrabénazine 60 minutes” value [4, 10] was -1,8. The “Température après tétrabénazine 90 minutes” value [4, 10] was -1,9, the “Température après tétrabénazine 120 minutes” value [4, 10] was -1,1 and the “Température après tétrabénazine Total” value [4, 10] was -7,9. The inhibition in vivo at 50 mg/kg [5, 11] was 24%, the “Ptosis Total” value [5, 10] was 23 and the “Ptosis 30 minutes” value [5, 10] was 3,6. The “Ptosis 60 minutes” value [5, 10] was 5,8, the “Ptosis 90 minutes” value [5, 10] was 6,4 and the “Ptosis 120 minutes” value [5, 10] was 7,2.
With `CN(C)CCN1c2ccccc2C=Cc2ccccc21` [compound 20, (β-diméthylaminoéthyl)-5 dibenzo [b,f] 5H azépine, reference compound] the change in vivo at 50 mg/kg [1, 8] was 440%, the “Augmentation de température en 4 h” value ([1]; product i.p. 50 mg/kg) was “+10,8” and the “variation de température T= 2h” value ([1]; product i.p. 50 mg/kg) was “+2,7”. For the same compound, the “variation de température T=3h” value ([1]; product i.p. 50 mg/kg) was “+2”, the “variation de température T=4h” value ([1]; product i.p. 50 mg/kg) was “+1” and the LD50 at 48 h [2] was 75 mg/kg. The mortality at 48 h ([2]; 50 mg/kg) was 0%, the mortality at 48 h ([2]; 100 mg/kg) was 60% and the mortality at 48 h ([2]; 200 mg/kg) was 100%. The “Mortalité en 1 heure” value ([3]; 50 mg/kg) was 0, the “Mortalité en 48 h.” value ([3]; 50 mg/kg) was 0 and the “Mortalité en 1 heure” value ([3]; 100 mg/kg) was 3. For the same compound, the “Mortalité en 48 h.” value ([3]; 100 mg/kg) was 3, the “Mortalité en 1 heure” value ([3]; 200 mg/kg) was 5 and the “Mortalité en 48 h.” value ([3]; 200 mg/kg) was 5. For the same compound, the inhibition in vivo at 50 mg/kg [4, 9] was 46%, the “Température après tétrabénazine 30 minutes” value [4, 10] was -3,1 and the “Température après tétrabénazine 60 minutes” value [4, 10] was -0,2. The “Température après tétrabénazine 90 minutes” value [4, 10] was -0,3, the “Température après tétrabénazine 120 minutes” value [4, 10] was -1 and the “Température après tétrabénazine Total” value [4, 10] was -4,6. The inhibition in vivo at 50 mg/kg [5, 11] was 60%, the “Ptosis Total” value [5, 10] was 12,2 and the “Ptosis 30 minutes” value [5, 10] was 2,2. The “Ptosis 60 minutes” value [5, 10] was 3,4, the “Ptosis 90 minutes” value [5, 10] was 3,2 and the “Ptosis 120 minutes” value [5, 10] was 3,6.
